Assay results published in US12162848B2, “Inhibitors of protein tyrosine phosphatase, compositions, and methods of use” (BRISTOL-MYERS SQUIBB COMPANY, priority 2022, dated 2024).

Key:
[1] = system: phosphorylated STAT1 protein levels in B16-F10 cells; experiment: Phospho-STAT1 (Tyr701) HTRF assay in IFN-gamma treated B16-F10 cells; type: cell-based; details: mouse IFN-gamma 100 ng/mL, 1 hour, read-out: pSTAT1 HTRF B16 EC50
How it was run: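 Mouse B16-F10 cells, 10,000/well, pretreated 1 h with compound (0.15% DMSO), then stimulated with mouse IFN-gamma at 100 ng/mL final for 1 h at 37 C. Phospho-STAT1 (Tyr701) measured by HTRF.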

PTPN2 enzyme = target: T1, PTPN2 enzyme (Homo sapiens, UniProt P17706); experiment: PhosphoSens PTPN2 biochemical assay; details: substrate AQT0264 20 μM, room temperature; read-out: PTPN2 BCHEM IC50
T1 sequence (P17706 1-415): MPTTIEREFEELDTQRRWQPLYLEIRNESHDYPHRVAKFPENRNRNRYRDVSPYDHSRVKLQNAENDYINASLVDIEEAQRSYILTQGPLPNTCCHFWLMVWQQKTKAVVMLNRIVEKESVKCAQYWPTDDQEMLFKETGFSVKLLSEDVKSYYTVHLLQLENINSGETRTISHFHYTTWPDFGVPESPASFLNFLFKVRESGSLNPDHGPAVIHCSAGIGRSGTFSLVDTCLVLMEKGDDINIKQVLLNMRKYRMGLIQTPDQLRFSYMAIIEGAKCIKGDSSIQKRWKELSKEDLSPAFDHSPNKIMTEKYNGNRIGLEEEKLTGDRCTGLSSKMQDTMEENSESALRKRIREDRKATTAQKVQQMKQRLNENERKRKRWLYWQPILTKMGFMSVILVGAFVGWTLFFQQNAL
How it was run: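 PhosphoSens fluorescence format with 20 μM final AQT0264 substrate and […] in 50 mM HEPES pH 7.5, 500 μM EGTA, […], 0.01% Brij-35, 1% glycerol, 1 mM DTT, 0.2 mg/mL BSA. Compounds in 3-fold dilution series; progress curves read (ex 360/em 480 nm) every 71 s for 1 h at room temperature.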

B16-F10 cells = experiment: Cell proliferation assay (CellTiter-Glo) in IFN-gamma treated B16-F10 cells; type: cell-based; details: 120 h, mouse IFN-gamma 10 ng/mL, read-out: PTPN2 Prolif 5d B16F10 EC50

EC50 [1]	IC50 (PTPN2 enzyme)	EC50 (B16-F10 cells)	SMILES
≥ 15000 nM	50 nM	≥ 15000 nM	O=C1CN(c2c(O)cc(CNc3cc(F)ccc3Cl)cc2F)S(=O)(=O)N1 [EXAMPLE 80, 5-[4-[(2-chloro-5-fluoro-anilino)methyl]-2-fluoro-6-hydroxy-phenyl]-1,1-dioxo-1,2,5-thiadiazolidin-3-one]
≥ 15000 nM	410 nM	≥ 15000 nM	CC(=O)N[C@H]1CC[C@H](NCc2cc(O)c(N3CC(=O)NS3(=O)=O)c(F)c2)CC1 [EXAMPLE 60, N-((1r,4r)-4-((4-(1,1-dioxido-4-oxo-1,2,5-thiadiazolidin-2-yl)-3-fluoro-5-hydroxybenzyl)amino)cyclohexyl)acetamide]
3220 nM	37 nM	2190 nM	CS(=O)(=O)N1CCC[C@H](NCc2cc(O)c(N3CC(=O)NS3(=O)=O)c(F)c2)C1 [EXAMPLE 75, 5-[2-fluoro-6-hydroxy-4-[[[(3S)-1-methylsulfonyl-3-piperidyl]amino]methyl]phenyl]-1,1-dioxo-1,2,5-thiadiazolidin-3-one]
≥ 15000 nM	88 nM	14600 nM	CC(C)CCN1CCC[C@@H](NCc2cc(O)c(N3CC(=O)NS3(=O)=O)c(F)c2)C1 [EXAMPLE 62, (R)-5-(2-fluoro-6-hydroxy-4-(((1-isopentylpiperidin-3-yl)amino)methyl)phenyl)-1,2,5-thiadiazolidin-3-one 1,1-dioxide]

More lines, now with the values behind:

SMILES	EC50 [1]	IC50 (PTPN2 enzyme)	EC50 (B16-F10 cells)
CC1(C)CCC[C@@H](NCc2cc(O)c(N3CC(=O)NS3(=O)=O)c(F)c2)C1 [EXAMPLE 51, 5-[4-[[[(1R)-3,3-dimethylcyclohexyl]amino]methyl]-2-fluoro-6-hydroxy-phenyl]-1,1-dioxo-1,2,5-thiadiazolidin-3-one]	1150 nM	35 nM	656 nM
O=C1CN(c2c(O)cc(CNC3CCOCC3)cc2F)S(=O)(=O)N1 [EXAMPLE 35, 5-[2-fluoro-6-hydroxy-4-[(tetrahydropyran-4-ylamino)methyl]phenyl]-1,1-dioxo-1,2,5-thiadiazolidin-3-one]	≥ 15000 nM	1560 nM	≥ 15000 nM
COC1CCN(Cc2cc(O)c(N3CC(=O)NS3(=O)=O)c(F)c2)CC1 [EXAMPLE 53, 5-[2-fluoro-6-hydroxy-4-[(4-methoxy-1-piperidyl)methyl]phenyl]-1,1-dioxo-1,2,5-thiadiazolidin-3-one]	3200 nM	102 nM	2980 nM
COc1ccc(-c2cc(O)c(N3CC(=O)NS3(=O)=O)c(F)c2)cn1 [EXAMPLE 23, 5-[2-fluoro-6-hydroxy-4-(6-methoxy-3-pyridyl)phenyl]-1,1-dioxo-1,2,5-thiadiazolidin-3-one]	≥ 15000 nM	142 nM	≥ 15000 nM
O=C1CN(c2c(O)cc(-c3cccc(N4CCOCC4)c3)cc2F)S(=O)(=O)N1 [EXAMPLE 16, 5-[2-fluoro-6-hydroxy-4-(3-morpholinophenyl)phenyl]-1,1-dioxo-1,2,5-thiadiazolidin-3-one]	≥ 15000 nM	423 nM	≥ 15000 nM
CC(C)CCN1CCCC(c2cc(O)c(N3CC(=O)NS3(=O)=O)c(F)c2)C1 (stereo not drawn) [EXAMPLE 5, 5-(2-fluoro-6-hydroxy-4-(1-isopentylpiperidin-3-yl)phenyl)-1,2,5-thiadiazolidin-3-one 1,1-dioxide]	≥ 15000 nM	1020 nM	≥ 15000 nM
CCN1CCC(NCc2cc(O)c(N3CC(=O)NS3(=O)=O)c(F)c2)CC1 [EXAMPLE 40, 5-(4-(((1-ethylpiperidin-4-yl)amino)methyl)-2-fluoro-6-hydroxyphenyl)-1,2,5-thiadiazolidin-3-one 1,1-dioxide]	2340 nM	131 nM	3260 nM
O=C1CN(c2c(O)cc(-c3ccc(C4CC4)cc3)cc2F)S(=O)(=O)N1 [EXAMPLE 17, 5-[4-(4-cyclopropylphenyl)-2-fluoro-6-hydroxy-phenyl]-1,1-dioxo-1,2,5-thiadiazolidin-3-one]	7950 nM	1410 nM	≥ 15000 nM
